The source of these data is paper PMC6205638, “Exploring natural genetic variation in tomato sucrose synthases on the basis of increased kinetic properties” (PLoS ONE, 2018).

Structures are written as SMILES.

Assay [1] relates to T1, SuSy3-haplotype#10.
T1 construct: natural wild-species haplotype, full length (805 aa), in pDR195, expressed in Saccharomyces cerevisiae 22574d, IEX-purified only; equals S. lycopersicum SuSy3 haplotype#1 with S53A/S106I/Q349L/E727D/K741E (natural differences)
As to the kind of experiment: sucrose cleavage; UDP-glucose quantified by UDP-glucose dehydrogenase / NADH; Michaelis-Menten fit. It is filed as biochemical, Solanum neorickii. The settings on record: 4 mM UDP, 20 mM HEPES pH 7.5, 25 °C; IEX-purified only (lower purity). From the text:
sucrose cleavage; UDP-glucose quantified by UDP-glucose dehydrogenase / NADH; Michaelis-Menten fit on SuSy3-haplotype#10

In assay [2] the test system is T2, SuSy3-haplotype#9.
T2 construct: natural wild-species haplotype, full length (805 aa), in pDR195, expressed in Saccharomyces cerevisiae 22574d, IEX- and IMAC-purified; equals S. lycopersicum SuSy3 haplotype#1 with S53A/S106I/E727D/K741E (natural differences)
The description is as above. It is filed as biochemical, Solanum arcanum. The settings on record: 4 mM UDP, 20 mM HEPES pH 7.5, 25 °C; IMAC-purified. From the text:
sucrose cleavage; UDP-glucose quantified by UDP-glucose dehydrogenase / NADH; Michaelis-Menten fit on SuSy3-haplotype#9

For the compound `OC[C@H]1O[C@@](CO)(O[C@H]2O[C@H](CO)[C@@H](O)[C@H](O)[C@H]2O)[C@@H](O)[C@@H]1O` [sucrose], the Km (commonly the concentration of substrate that gives half-maximal velocity) came out at 58 ± 14 mM in assay [1] and 33 ± 9 mM in assay [2].
